# Reference: patent US5079237A, “Inclusion complex of nicardipine or its hydrochloride with beta-cyclodextrin and a sustained release pharmaceutical preparation containing the same” (priority 1988, dated 1992)
# Counter-ions that a name gives are not always drawn.
# Legend:
# [1] = Differential scanning calorimetry: thermal stability (Example 4); assay type: physicochemical; details: DSC
# Description: Nicardipine hydrochloride melts at 160° C., its thermal decomposition beginning at about 200° C. Beta-cyclodextrin contains combined water, which begins to separate off the sample already at about 40° C. The dehydratation of beta-cyclodextrin is completed at about 100° C. Anhydrous beta-cyclodextrin is stable up to 270° C., when thermal decomposition starts, which becomes intensive at 300° C. The behaviour of the inclusion complex of nicardipine hydrochloride with beta-cyclodextrin at the thermoanalytical assay is quite different. After the initial slight loss of weight at temperatures below 150° C., which can be attributed to the adsorbed moisture, the substance is stable up to about 220° C, when thermal decomposition sets in. […] The DSC scans of nicardipine hydrochloride, beta-cyclodextrin, the physical mixture of nicardipine hydrochloride and beta-cyclodextrin and of the inclusion complex of nicardipine hydrochloride with beta-cyclodextrin clearly indicate the formation of the inclusion complex of nicardipine hydrochloride with beta-cyclodextrin. Thus, the differential scanning calorimetry measurements are in accordance with the powder X-ray diffraction patterns.
# [2] = Solubility in water of nicardipine (hydrochloride), complexed and non-complexed (Example 3); assay type: physicochemical; details: room temperature, saturated solution
# Description: Solubility in water Comparative solubility of nicardipine and its hydrochloride resp. alone and of its inclusion complex with beta-cyclodextrin. The concentrations of the dissolved nicardipine and its hydrochloride resp. at room temperature were determined in clear filtrates of the saturated solutions by liquid chromatography using the external standard method.
# [3] = Dissolution rate in artificial biological fluids, Paddle Method, USP XXI (Example 5); assay type: physicochemical; details: for % dissolution: 37° C., mean of three tests
# Description: Dissolution rates of the complexed and the non-complexed nicardipine and its hydrochloride
# 40 mg of nicardipine hydrochloride or the equivalent amount of […] of the inclusion complex of nicardipine with beta-cyclodextrin were used.
# The dissolution tests were performed in artificial gastric juice of pH 1.2 and in artificial intestinal juices of pH 6.0, 6.5 and 7.4 at the temperature of 37° C.±0.5° C. The volume of the artificial biological fluids was 1000 ml. The rotation speed of the paddle mixer was 100 rpm. The quantities of the dissolved nicardipine hydrochloride in the test samples were determined spectrophotometrically (λmax =240 nm).
# [4] = Acute toxicity (LD50) in mice after p.o. administration (Example 6); assay type: in vivo; details: mouse, in vivo, po; for mortality at 24 h: read-out: % of perished animals after 24 hrs; for mortality at 360 h: read-out: % of perished animals after 15 days; for LD50 at 360 h: mice, p.o., Litchfield-Wilcoxon, read-out: LD50 after 15 days
# Description: (§1) In toxicological tests acute toxicities (LD50) of nicardipine hydrochloride and of its inclusion complex with beta-cyclodextrin were determined in mice and rats. The complex contained 26.8% of nicardipine hydrochloride.
# (§2) Albino laboratory mice weighing 18 to 24 g and rats weighing 180 to 240 g of both sexes were used. Nicardipine hydrochloride was administered in the following doses:
# (§3) The volume of the administered suspension was in mice 0.2 to 0.4 ml/20 g of body weight and in rats 0.8 to 2.4 ml/200 g of body weight.
# (§4) The inclusion complex of nicardipine hydrochloride with beta-cyclodextrin was administered in the following doses:
# (§5) mice: 18500 mg/kg of body weight, corresponding to
# (§6) 4958 mg of nicardipine/kg of body weight;
# (§7) The volume of the administered suspension was in mice 0.6 ml/20 g of body weight and in rats 1.2 to 4.4 ml/200 g of body weight. The animals were left without food for 18 hours before the administration. After the administration the animals were put under observation and the symptoms of poisoning or behaviour changes were recorded for another 15 days. During the tests the animals were given food and water ad libitum.
# (§8) The results were statistically evaluated according to the Litchfield-Wilcoxon method (J. Pharmacol. Exp. Therap. 96, 99 (1949)).
# [5] = system: mice; assay: as above; assay type: in vivo; details: mice, p.o.; for LD50 after 15 days: Litchfield-Wilcoxon, 21600 min
# Description: as §1, §2, §3, §4, §5, §6, §7, §8
# [6] = Acute toxicity (LD50) in rats after p.o. administration (Example 6); assay type: in vivo; details: rat, in vivo, po; for mortality at 24 h: read-out: % of perished animals after 24 hrs; for mortality at 360 h: read-out: % of perished animals after 15 days; for LD50 at 360 h: rats, p.o., Litchfield-Wilcoxon, read-out: LD50 after 15 days
# Description: as §1, §2, §3, §4
# (§9) rats: 5000 mg/kg of body weight, corresponding to
# (§10) 1340 mg of nicardipine/kg of body weight,
# (§11) 11100 mg/kg of body weight, corresponding to
# (§12) 2975 mg of nicardipine/kg of body weight,
# (§13) 18500 mg/kg of body weight, corresponding to
# (§14) 4958 mg of nicardipine/kg of body weight.
# as §7, §8
# [7] = system: rats; assay: as above; assay type: in vivo; details: rats, p.o.; for LD50 after 15 days: Litchfield-Wilcoxon, 21600 min
# Description: as §1, §2, §3, §4, §9, §10, §11, §12, §13, §14, §7, §8
# [8] = cited from earlier work
# [9] = known from DE patent 24 07 115; cited from earlier work
# [10] = 1500 mg/kg, mice F, 1500 mg/kg p.o.
# [11] = 1500 mg/kg, mice M, 1500 mg/kg p.o.
# [12] = 3000 mg/kg, mice F, 3000 mg/kg p.o.
# [13] = 3000 mg/kg, mice M, 3000 mg/kg p.o.
# [14] = 4000 mg/kg, mice F, 4000 mg/kg p.o.
# [15] = 5000 mg/kg, mice F, 5000 mg/kg p.o.
# [16] = 5000 mg/kg, mice M, 5000 mg/kg p.o.
# [17] = 6000 mg/kg, mice F, 6000 mg/kg p.o.
# [18] = 6000 mg/kg, mice M, 6000 mg/kg p.o.
# [19] = 2000 mg/kg, rats M, 2000 mg/kg p.o.
# [20] = 2500 mg/kg, rats M, 2500 mg/kg p.o.
# [21] = 3000 mg/kg, rats F, 3000 mg/kg p.o.
# [22] = 3500 mg/kg, rats M, 3500 mg/kg p.o.
# [23] = 4000 mg/kg, rats F, 4000 mg/kg p.o.
# [24] = 5000 mg/kg, rats F, 5000 mg/kg p.o.
# [25] = 5000 mg/kg, rats M, 5000 mg/kg p.o.
# [26] = 6000 mg/kg, rats F, 6000 mg/kg p.o.
smiles,measurement,setting,value
OC[C@H]1O[C@@H]2O[C@H]3[C@H](O)[C@@H](O)[C@@H](O[C@H]4[C@H](O)[C@@H](O)[C@@H](O[C@H]5[C@H](O)[C@@H](O)[C@@H](O[C@H]6[C@H](O)[C@@H](O)[C@@H](O[C@H]7[C@H](O)[C@@H](O)[C@@H](O[C@H]8[C@H](O)[C@@H](O)[C@@H](O[C@H]1[C@H](O)[C@H]2O)O[C@@H]8CO)O[C@@H]7CO)O[C@@H]6CO)O[C@@H]5CO)O[C@@H]4CO)O[C@@H]3CO [beta-cyclodextrin],onset of thermal decomposition (stable up to),[1],270 °C
same,temperature at which thermal decomposition becomes intensive,[1]; anhydrous,300 °C
COC(=O)C1=C(C)NC(C)=C(C(=O)OCCN(C)Cc2ccccc2)C1c1cccc([N+](=O)[O-])c1 (stereo not shown) [nicardipine hydrochloride],solubility,[2],1500 µg/mL
same,"dissolution, in words",[3]; gastric juice,dissolves quickly and completely
same,% dissolution,"[3]; gastric juice, pH 1.2, 10 min",93.5%
same,% dissolution,"[3]; gastric juice, pH 1.2, 30 min",100.2%
same,% dissolution,"[3]; intestinal juice, pH 6.0, 10 min",50.2%
same,% dissolution,"[3]; intestinal juice, pH 6.0, 30 min",58.7%
same,% dissolution,"[3]; intestinal juice, pH 6.5, 10 min",35.5%
same,% dissolution,"[3]; intestinal juice, pH 6.5, 30 min",39.0%
same,% dissolution,"[3]; intestinal juice, pH 7.4, 10 min",1.0%
same,% dissolution,"[3]; intestinal juice, pH 7.4, 30 min",1.3%
same,mortality at 24 h,[4]; [10],20%
same,mortality at 360 h,[4]; [10],20%
same,mortality at 24 h,[4]; [11],0%
same,mortality at 360 h,[4]; [11],0%
same,mortality at 24 h,[4]; [12],40%
same,mortality at 360 h,[4]; [12],40%
same,mortality at 24 h,[4]; [13],30%
same,mortality at 360 h,[4]; [13],40%
same,mortality at 24 h,[4]; [14],30%
same,mortality at 360 h,[4]; [14],50%
same,mortality at 24 h,[4]; [15],40%
same,mortality at 360 h,[4]; [15],70%
same,mortality at 24 h,[4]; [16],40%
same,mortality at 360 h,[4]; [16],70%
same,mortality at 24 h,[4]; [17],90%
same,mortality at 360 h,[4]; [17],90%
same,mortality at 24 h,[4]; [18],90%
same,mortality at 360 h,[4]; [18],100%
same,LD50 at 360 h,[4]; F,3640 mg/kg
same,LD50 at 360 h,[4]; M,3760 mg/kg
same,LD50 after 15 days,[5]; F,3639 (2637-5022) mg/kg
same,LD50 after 15 days,[5]; M,3756 (2815-5012) mg/kg
same,recovery of animals,[5],recovered after 24 hours
same,symptoms of poisoning,[5],dyspnoea and paresis
same,mortality at 24 h,[6]; [19],40%
same,mortality at 360 h,[6]; [19],40%
same,mortality at 24 h,[6]; [20],40%
same,mortality at 360 h,[6]; [20],40%
same,mortality at 24 h,[6]; [21],0%
same,mortality at 360 h,[6]; [21],0%
same,mortality at 24 h,[6]; [22],60%
same,mortality at 360 h,[6]; [22],60%
same,mortality at 24 h,[6]; [23],10%
same,mortality at 360 h,[6]; [23],20%
same,mortality at 24 h,[6]; [24],44.4%
same,mortality at 360 h,[6]; [24],66.6%
same,mortality at 24 h,[6]; [25],80%
same,mortality at 360 h,[6]; [25],80%
same,mortality at 24 h,[6]; [26],80%
same,mortality at 360 h,[6]; [26],80%
same,LD50 at 360 h,[6]; F,4790 mg/kg
same,LD50 at 360 h,[6]; M,2900 mg/kg
same,LD50 after 15 days,[7]; F,4791 (4206-5458) mg/kg
same,LD50 after 15 days,[7]; M,2900 (1635-5143) mg/kg
same,recovery of animals,[7],recovered after 24 hours
same,symptoms of poisoning,[7],dyspnoea and paresis
same,onset of thermal decomposition (stable up to),[1],about 200 °C
same,solubility at higher pH values,[8]; higher pH values,very poor
same,solubility at low pH values,[8]; low pH values,good
"COC(=O)C1=C(C)NC(C)=C(C(=O)OCCN(C)Cc2ccccc2)C1c1cccc([N+](=O)[O-])c1 (stereo not shown) [nicardipine, 2-(N-benzyl-N-methylamino)-ethyl methyl 2,6-dimethyl-4-(m-nitrophenyl)-1,4-dihydropyridine-3,5-dicarboxylate]",toxicity,[9],low toxicity
same,solubility in biological fluids,[8]; pH of 5 to 8,poor solubility
same,water solubility,[8]; water,unsatisfactory
